Laboratory results taken from article PMC7251097, “Aspartate/asparagine-β-hydroxylase: a high-throughput mass spectrometric assay for discovery of small molecule inhibitors” (Scientific Reports, 2020).
Counter-ions that a name gives are not always drawn. Like-named read-outs stand apart in the source and are kept apart here. One block for each compound: values may come before it.

Target: T1, His6-AspH315–758 (human aspartate/asparagine-β-hydroxylase, AspH) (Homo sapiens, UniProt Q12797)
T1 construct: N-Terminally His6-tagged human AspH315–758 (His6-AspH315–758) was produced in E. coli BL21 (DE3) cells; made in house; host or cells: E. coli BL21 (DE3), pET-28a(+) vector
T1 sequence (Q12797 315-758): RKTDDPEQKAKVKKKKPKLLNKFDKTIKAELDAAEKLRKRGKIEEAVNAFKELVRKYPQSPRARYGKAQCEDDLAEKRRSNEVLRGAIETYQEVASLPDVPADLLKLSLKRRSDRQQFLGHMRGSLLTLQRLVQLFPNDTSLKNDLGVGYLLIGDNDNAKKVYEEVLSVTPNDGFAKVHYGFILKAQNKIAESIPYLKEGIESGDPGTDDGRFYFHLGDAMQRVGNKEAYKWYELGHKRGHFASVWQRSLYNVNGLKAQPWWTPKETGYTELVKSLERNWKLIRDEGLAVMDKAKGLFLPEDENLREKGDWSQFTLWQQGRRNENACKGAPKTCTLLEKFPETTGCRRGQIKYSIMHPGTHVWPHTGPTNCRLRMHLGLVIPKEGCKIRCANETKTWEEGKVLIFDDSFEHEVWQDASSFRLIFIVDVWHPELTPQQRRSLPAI
Experiment: SPE-MS AspH inhibition assay (LOPAC screen at fixed 20 μM and IC50 dose-response), hydroxylation of cyclic peptide hFX-CP101–119
Type: biochemical

[1] = LOPAC compound at 20uM, plate 2, conversion of substrate peptide
[2] = LOPAC compound at 20uM, plate 2, normalised to DMSO and 2,4-PDCA controls, read-out: Plate 2 (% inhibition)
[3] = LOPAC Plate 4, compound at 20 uM, substrate conversion
[4] = LOPAC compound at 20uM, plate 3, conversion of substrate peptide
[5] = LOPAC compound at 20uM, plate 2, normalised to DMSO and 2,4-PDCA controls
[6] = LOPAC compound at fixed 20 uM, plate 1, normalised to DMSO and 2,4-PDCA controls
[7] = LOPAC compound at fixed 20 uM, substrate conversion, plate 1
[8] = LOPAC Plate 4, compound at 20 uM
[9] = LOPAC Plate 4, compound at 20 uM, read-out: % inhibition
[10] = 50 nM His6-AspH315–758, 1.0 μM hFX-CP101–119, 3 μM 2OG, 2 μM Fe(II), 50 mM HEPES pH 7.5, 20 °C, mean ± SD, n = 2 (2,4-PDCA n = 10)

Compound: CCN(CC)CCn1c(=O)c(Cc2ccc(OC)cc2)nc2ccccc21.Cl [Caroverine hydrochloride]
% conversion [3]: 34.53%

Compound: C[N+]1(C)CCN(c2ccccc2)CC1.[I-]
Plate 2 (% conversion): 36.09%
Plate 2 (% inhibition) (20 µM): -0.39%

Compound: CC(C)(C)NCC(O)COc1cccc2[nH]c(=O)[nH]c12.Cl (racemic) [(±)-CGP-12177A hydrochloride]
Plate 2 (% conversion) [1]: 36.58%
Plate 2 (% inhibition) [5]: -1.88%

Compound: O=C(c1ccc2c(c1)OCCO2)N1CCCCC1 [CX 546]
Plate 2 (% conversion) [1]: 39.70%
Plate 2 (% inhibition) [5]: -11.19%

Compound: O=[N+]([O-])c1cccc2cn[nH]c12 [7-Nitroindazole]
Plate 3 (% conversion) [4]: 35.80%

Compound: CCOC(=O)C(C)(C)Oc1ccc(Cl)cc1 [Clofibrate]
Plate 1 (% inhibition) [6]: -11.71%
Plate 1 (% conversion) [7]: 39.80%

Compound: NC(=O)c1ccccc1 [Benzamide]
Plate 1 (% inhibition) [6]: -4.66%
Plate 1 (% conversion) [7]: 37.44%

Compound: NC(CCP(=O)(O)O)C(=O)O (racemic) [(±)-2-Amino-4-phosphonobutyric acid]
Plate 1 (% conversion): 37.71%
Plate 1 (% inhibition): -5.48%

Compound: O=[N+]([O-])c1ccc2c(c1)S(=O)(=O)C=C2 [Stattic]
% conversion: 34.71%
% inhibition (20 µM): 5.15%

Compound: COc1ccc2cccc(CCNC(C)=O)c2c1 [Agomelatine]
Plate 3 (% conversion) [4]: 37.59%

Compound: CCN(CC)CCCN(c1ccccc1)C1Cc2ccccc2C1 [Aprindine hydrochloride]
% conversion [3]: 34.60%

Compound: Cc1cc2c(C(C)C)c(O)c(O)c(C=O)c2c(O)c1-c1c(C)cc2c(C(C)C)c(O)c(O)c(C=O)c2c1O [Gossypol]
Plate 3 (% conversion): 4.73%

Compound: C=C(C)[C@H]1CN[C@H](C(=O)O)[C@H]1CC(=O)O [Kainic acid]
Plate 3 (% conversion): 38.81%

Compound: Nc1ncnc2c1nc(Sc1ccc(Cl)cc1)n2C1OC2COP(=O)(O)OC2C1O (stereo in doubt) [8-(4-Chlorophenylthio)-cAMP sodium]
Plate 1 (% inhibition) [6]: -2.91%
Plate 1 (% conversion) [7]: 36.85%

Compound: Clc1cnc(Oc2ccc(Oc3ncc(Cl)cc3Cl)cc2)c(Cl)c1 [TCPOBOP]
% conversion: 30.30%

Compound: NC(Cc1cc(O)c(O)cc1O)C(=O)O (racemic) [6-Hydroxy-DL-DOPA, reference compound]
Inhibition at 20 µM [%]: 103.1%
Plate 2 (% conversion): 1.44%
Plate 2 (% inhibition) (20 µM): 103.09%

Compound: Cn1c(=O)c2[nH]c(C3CCCC3)nc2n(C)c1=O [8-Cyclopentyl-1,3-dimethylxanthine]
Plate 2 (% conversion) [1]: 36.70%
Plate 2 (% inhibition) [5]: -2.21%

Compound: CCNC(=O)[C@H]1O[C@@H](n2cnc3c(N)ncnc32)[C@H](O)[C@@H]1O [5-N-Ethylcarboxamidoadenosine]
Plate 2 (% conversion) [1]: 35.71%
Plate 2 (% inhibition) [5]: 0.73%

Compound: Cn1c(=O)[nH]c2ncn(C)c2c1=O [1,7-Dimethylxanthine]
Plate 2 (% conversion) [1]: 35.50%
inhibition at 20 µM [2]: 1.36%

Compound: CN1[C@@H]2CC[C@H]1C[C@@H](OC(c1ccccc1)c1ccccc1N)C2 (stereo partly drawn) [Aminobenztropine]
Plate 1 (% conversion): 38.12%
Plate 1 (% inhibition) [6]: -6.68%

Compound: COc1ccc(C(CN(C)C)C2(O)CCCCC2)cc1 (stereo not drawn) [Venlafaxine hydrochloride]
Plate 2 (% conversion): 36.45%
inhibition at 20 µM (read-out: Plate 2 (% inhibition)): -1.48%

Compound: CN1[C@H]2C[C@H](OC(=O)[C@H](CO)c3ccccc3)C[C@@H]1[C@@H](O)C2 (racemic) [(+/-)-Anisodamine]
Plate 2 (% conversion): 36.39%
Plate 2 (% inhibition) (20 µM): -1.30%

Compound: CCN1CCCC1CNC(=O)c1cc(S(N)(=O)=O)ccc1OC (racemic) [(±)-Sulpiride]
% inhibition [8]: -0.19%
% conversion [3]: 36.54%

Compound: O=[N+]([O-])c1cc(O)c(O)c([N+](=O)[O-])c1 [3,5-Dinitrocatechol, reference compound]
Plate 2 (% conversion): 2.07%
Plate 2 (% inhibition) (20 µM): 101.20%

Compound: CO/N=C(\C(=O)N[C@@H]1C(=O)N2C(C(=O)O)=C(COC(C)=O)CS[C@H]12)c1csc(N)n1 [Cefotaxime sodium]
Plate 1 (% inhibition) [6]: 3.71%
Plate 1 (% conversion) [7]: 34.63%

Compound: COc1cc2nc(N(C)CCCNC(=O)C3CCCO3)nc(N)c2cc1OC (stereo not drawn) [Alfuzosin hydrochloride]
Plate 1 (% inhibition) [6]: -12.38%
Plate 1 (% conversion) [7]: 40.03%

Compound: CCc1cccc(N(C)C(N)=Nc2cccc3ccccc23)c1 [CNS-1102]
Plate 1 (% inhibition) [6]: -9.21%
Plate 1 (% conversion) [7]: 38.96%

Other lines, results leading:

Plate 2 (% conversion) [1]: 33.88%
inhibition at 20 µM [2]: 6.21%
Compound: CC[N+](CC)(CC)CCOc1cccc(OCC[N+](CC)(CC)CC)c1OCC[N+](CC)(CC)CC [Gallamine triethiodide]

Plate 2 (% conversion) [1]: 35.57%
inhibition at 20 µM [2]: 1.14%
Compound: Nc1nc(O)c2ncn(COC(CO)CO)c2n1 [Ganciclovir]

Plate 3 (% conversion) [4]: 37.63%
Compound: Cn1cnc2c(NCc3ccccc3)nc(NCCO)nc21 [Olomoucine]

Plate 1 (% inhibition) [6]: -24.51%
Plate 1 (% conversion) [7]: 44.10%
Compound: N[C@@H]1[C@H]2CN(c3nc4c(cc3F)c(=O)c(C(=O)O)cn4-c3ccc(F)cc3F)C[C@@H]12 [Trovafloxacin mesylate]

Plate 1 (% inhibition) [6]: -8.37%
Plate 1 (% conversion) [7]: 38.68%
Compound: NC/C=C\C(=O)O [cis-4-Aminocrotonic acid]

Plate 1 (% inhibition) [6]: -26.34%
Plate 1 (% conversion) [7]: 44.72%
Compound: CC[C@H](NC(=O)c1c(C)c(-c2ccccc2)nc2ccccc12)c1ccccc1 [SB 222200]

Inhibition at 20 µM [%] (AspH activity, fixed compound concentration 20 μM, initial LOPAC screen, 0.5%v/v DMSO): 95.1%
% inhibition [8]: 95.13%
% conversion [3]: 4.00%
Compound: Br.Cc1cccc(C2CN(C)CCc3c2cc(O)c(O)c3Cl)c1 (stereo not drawn) [SKF 83959 hydrobromide, reference compound]

Plate 2 (% conversion) [1]: 36.49%
Plate 2 (% inhibition) [5]: -1.58%
Compound: N[C@@H](Cc1ccc(F)cc1)C(=O)O [p-Fluoro-L-phenylalanine]

% conversion [3]: 39.76%
inhibition at 20 µM [9]: -9.65%
Compound: OC(CCN1CCCCC1)(c1ccccc1)C1CCCCC1 (stereo not drawn) [Trihexyphenidyl hydrochloride]

IC50 [μM] [10]: inactive
Compound: CCOC(=O)CCNc1cc(N2CCc3ccccc3CC2)nc(-c2ccccn2)n1 [GSK-J4, reference compound]

% conversion [3]: 38.08%
inhibition at 20 µM [9]: -4.73%
Compound: CN1CCN(CC(=O)N2c3ccccc3C(=O)Nc3cccnc32)CC1 [Pirenzepine dihydrochloride]

IC50 [μM] [10]: no inhibition
Compound: CCOc1nc2cccc(C(=O)O)c2n1Cc1ccc(-c2ccccc2-c2nnn[nH]2)cc1 [candesartan, reference compound]

Plate 3 (% conversion) [4]: 38.57%
Compound: O=C(O)/C=C1\CCCc2ccccc2C1O (stereo not drawn) [NCS-382]

Plate 3 (% conversion) [4]: 29.92%
Compound: CC[N+](CC)(CC)CCOc1ccc(/C=C/c2ccccc2)cc1 [MG 624]

% conversion [3]: 37.25%
inhibition at 20 µM [9]: -2.28%
Compound: NC[C@@H]1O[C@H](O[C@H]2[C@@H](O)[C@H](O[C@@H]3[C@@H](O)[C@H](N)C[C@H](N)[C@H]3O[C@H]3O[C@H](CO)[C@@H](O)[C@H](O)[C@H]3N)O[C@@H]2CO)[C@H](N)[C@@H](O)[C@@H]1O [Paromomycin sulfate]

Plate 5 (% inhibition) (plate 5 (Pfitzer), test compounds at fixed 20 μM): 16.45%
Plate 5 (% conversion) (plate 5 (Pfitzer), test compounds at fixed 20 μM, mean conversion DMSO 32.88): 30.72%
Compound: Cc1c([N+](=O)[O-])cc2[nH]c(=O)c(=O)[nH]c2c1CN1CCCC1 [PD-161989]

IC50 (50 nM His6-AspH315–758, 1.0 μM hFX-CP101–119, 3 μM 2OG, 2 μM Fe(II), 50 mM HEPES pH 7.5, 20 °C, mean ± SD, n = 2 (2,4-PDCA n = 10), read-out: IC50): 4.89 ± 0.37 µM
Compound: Cc1c(O)c(=O)ccn1C [Deferiprone, reference compound]

Plate 3 (% conversion) [4]: 39.51%
Compound: O=C([O-])[C@H](CC(=O)N1C[C@H]2CCCC[C@H]2C1)Cc1ccccc1.O=C([O-])[C@H](CC(=O)N1C[C@H]2CCCC[C@H]2C1)Cc1ccccc1.[Ca+2] [Mitiglinide calcium]
